Like-named read-outs stand apart in the source and are kept apart here.

One test deals with MAP-217 PT PDX model. Put plainly: Osteosarcoma orthotopic (paratibial) PDX model MAP-217. Type of test: in vivo, NSG mice. The note with it: IP 10 mg/kg/injection daily. From the text:
Experiments were validated by the CEEA26, Ethic committee (approval number APAFIS #27183-2020091414229028 v3) and carried out under conditions established by the European Community (Directive 2010/63/UE). Animals were purchased at Gustave Roussy (Villejuif, France) and maintained in the respective animal facilities following standard animal regulation, health and care, and ethical controls. Osteosarcoma PDXs were established from relapsed patients by transplantation in immunocompromised NSG mice and considered as established when tumor growth was sustained after at least two in vivo passages. […] Clinical status, tumor uptake and tumor growth will be evaluated one to 3 times a week. Paratibial tumor was detected by palpation and tumor gross appearance (caliper measurements). […] Mice were then anesthetized and bone structure alterations were analyzed by CTscan imaging. […]
Groups of 8 animals bearing the same OTS orthotopic PDX model were treated from day 14 after tumor implantation with intraperitoneal (IP) injection (volume of 10 m/kg) every day with either T0070907 (10 mg/Kg/injection) or with vehicle (saline, control group). […] Clinical status, tumor uptake and tumor growth were evaluated each two days. Paratibial tumors were detected by palpation, tumor gross apparition (caliper measurements). […]

For test [1], the system named is 7 human osteosarcoma lines. Put plainly: MTS cell proliferation assay, 48 and 72 h (first Example 2). Format: cell-based. The note with it: MTS test. As to the method: HOS, 143B, MG-63, U2OS and IOR/OS18 cell lines were seeded at 5,000 cells per well, Saos-2, Saos-2-B and IOR/OS14 cell lines were seeded at 10,000 cells per well in a 96-well plate containing a final volume of 100 μl/well and left to settle overnight in DMEM with 10% fetal calf serum.
The cells were treated with different drugs (PPARγ agonists troglitazone (TGZ) or rosiglitazone (RGZ), or PPARγ antagonist T0070907, dissolved in DMSO) at concentrations ranging from 0 μmol/l to 100 μmol/L. The control (untreated cells) get the same volume of DMSO when the cells are treated (10 μl per 1 ml). Cell viability was determined 48 and 72 hours after exposure. Old medium was removed and a solution with MTS/new medium (20 μl of MTS solution−final concentration 0.33 mg/ml) (CellTiter 96 Aqueous One Solution Cell Proliferation Assay; Promega Corporation, Charbonnieres, France) was added. A set of wells were prepared only with MTS/new medium for background subtraction at the same time. An incubation from 1 to 7 hours at 37° C. (cell line metabolism dependent) was performed follow by a colorimetric measurement at 490 nm in an automatic plate reader (Elxb808; Fisher Bioblock Scientific SAS, Illkirch, France).

For test [2], the system named is 8 osteosarcoma parental cell lines. Put plainly: In vitro cell viability (MTS assay), 72 h. Type of test: cell-based, human. The protocol: (§1) Parental HOS, 143B, MG-63, IOR/OS18, resistant derived HOS R/MTX and derived PPARγ shRNA or overexpressing PPARγ cell lines were seeded at 5000 cells/well, parental, Saos2, Saos-2B, IOR/OS14, resistant derived HOS R/DOXO and derived PPARγshRNA or overexpressing PPARγ lines were seeded at 10,000 cells/well in a 96-well plate in DMEM supplemented with 10% FBS for both assays.
(§2) The day after seeding, cells were incubated in the presence of a range of drug concentrations for 72 h (from 0 to 100 μmol/L for DOXO, MAF; 0 to 500 μmol/L for MTX, T0070907, Rosiglitazone (RGZ) and Troglitazone (TGZ)). Cell viability was evaluated using the CellTiter 96 Aqueous One Solution Cell Proliferation Assay (MTS assay) (Promega, Charbonnieres, France), according to the manufacturer instructions. The half-maximal inhibitory concentration (IC50) was determined using the GraphPad Prism5 software (Graphpad Software Inc., California, USA).

The test system of test [3] is HOS cells. The test is described as follows: In vitro cell viability (MTS assay), HOS. Type of test: cell-based, human. As to the method: as §1, §2
Test [4] has as its system HOS cells. The test is described as follows: RNA sequencing of treated HOS cells. The following applies: T0070907 at 25 μM for 24 h. Type of test: cell-based, human.

For `O=C(Nc1ccncc1)c1cc([N+](=O)[O-])ccc1Cl` [T0070907], the “delay to reach 2.5 time the initial leg volume, higher compared to control” value in the test on MAP-217 PT PDX model amounted to 20%. Further, the lung metastases result in the test on MAP-217 PT PDX model (IHC human Ki67 at sacrifice) is “decreased lung metastases in number and size”. The concentration for half-maximal inhibition (IC50) in test [1] (read-out: IC50 (cell viability), range over cell lines) was 9 to 18 µM; in test [1] (read-out: median IC50 (cell viability)), 20 µM; in test [2] (8 osteosarcoma parental cell lines, read-out: IC50, range over cell lines), 9.3 to 37.4 µM; in test [2] (all 8 osteosarcoma parental cell lines, read-out: Median IC50), 20 µM; in the test with HOS cells [3], 25 µM. Besides, in the test on HOS cells [4], the “RNA sequencing: transcription programs induced” value was “induction of pro-apoptotic and osteoblastic differentiation programs”.

The values are drawn from patent publication US20240301499A1, “METHOD FOR IDENTIFYING HARD-TO-TREAT OSTEOSARCOMA PATIENTS AT DIAGNOSIS AND IMPROVING THEIR OUTCOME BY PROVIDING NEW THERAPY” (Institut Gustave Roussy, priority 2021, published 2024).
